Drawing on PubChem BioAssay (NCI), this text covers GI50 and TGI for seven molecules.

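Step 1: Grow cells in 96-well plates. Step 2: Expose to compound for 48 hours at 5 concentrations. Step 3: Interpolate endpoints linearly; if unreached, use highest concentration. At the GI50, growth is halved. TGI is the concentration that stops growth completely.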

Among the test systems are HOP-62 NSCLC; SF-268 CNS; HOP-92 NSCLC; OVCAR-5 ovarian; SK-OV-3 ovarian; A498 renal; HL-60(TB) leukemia; SN12C renal; HCT-15 colon; SF-539 CNS.
What all share (experiment): DTP human tumour cell line panel, 48 h

In general, GI50 refers to the concentration at which growth is held to half of that of the control. By TGI is commonly meant the concentration giving total growth inhibition. Consider `O=C(Nc1cccc2ccccc12)c1cc2ccccc2cc1O`, for which the GI50 in the experiment with HOP-62 NSCLC was 3.25 µM; with SF-268 CNS, 3.47 µM; in the experiment on HOP-92 NSCLC, 0.969 µM; in the experiment with OVCAR-5 ovarian, 3.32 µM; in the experiment on SK-OV-3 ovarian it was 2.5 µM; in the experiment with A498 renal, 1.03 µM. For the same molecule, the GI50 with HL-60(TB) leukemia was 2.37 µM; in the experiment with SN12C renal, 2.4 µM; in the experiment on HCT-15 colon, 3.03 µM; in the experiment on SF-539 CNS it was 3.28 µM. In addition, the total growth inhibition concentration (TGI) in the experiment with HOP-62 NSCLC amounted to 18.1 µM; in the experiment with SF-268 CNS, 39.1 µM; in the experiment on HOP-92 NSCLC, 4.25 µM; in the experiment with OVCAR-5 ovarian, 13 µM; in the experiment with SK-OV-3 ovarian, 7.55 µM; in the experiment on A498 renal, 3.91 µM. The TGI in the experiment with HL-60(TB) leukemia was 8.22 µM; in the experiment on SN12C renal, 9.97 µM; with HCT-15 colon, 11.6 µM; with SF-539 CNS, 12.8 µM.
As for `Cn1cc(-c2nc(-c3cn(C)c4ncccc34)cs2)c2cc(F)ccc21`, the GI50 in the experiment with HOP-62 NSCLC was 2.67 µM; with SF-268 CNS it was 3.38 µM; with HOP-92 NSCLC it was 2.31 µM; in the experiment with OVCAR-5 ovarian it was 3.54 µM; with SK-OV-3 ovarian it was 2.4 µM; with A498 renal, 1.91 µM. Besides, the GI50 was 1.67 µM in the experiment with HL-60(TB) leukemia, 3.63 µM with SN12C renal, 1.51 µM with HCT-15 colon and 1.8 µM with SF-539 CNS. In addition, the TGI in the experiment on HOP-62 NSCLC was 84.7 µM; in the experiment with SF-268 CNS, 47.2 µM; in the experiment with HOP-92 NSCLC, 8.14 µM; in the experiment on OVCAR-5 ovarian, above 100 µM; in the experiment on SK-OV-3 ovarian it was 21.2 µM; in the experiment on A498 renal it was 31.3 µM. Besides, the TGI with HL-60(TB) leukemia is 88.7 µM; in the experiment with SN12C renal, above 100 µM; in the experiment on HCT-15 colon, above 100 µM; with SF-539 CNS, 5.28 µM.
Regarding `CCNCCNc1cc(C2CCCC2)c(C#N)c2nc3ccccc3n12`, the GI50 was 3.72 µM in the experiment with HOP-62 NSCLC; 3.28 µM in the experiment with SF-268 CNS; 2.08 µM in the experiment on HOP-92 NSCLC; 5.13 µM in the experiment on OVCAR-5 ovarian; 3.26 µM in the experiment with SK-OV-3 ovarian; 2.67 µM in the experiment with A498 renal. Moreover, the GI50 in the experiment with HL-60(TB) leukemia is 2.01 µM; in the experiment with SN12C renal, 3.61 µM; in the experiment on HCT-15 colon, 3.07 µM; in the experiment on SF-539 CNS it was 1.67 µM. The TGI was 14.9 µM in the experiment on HOP-62 NSCLC; 14 µM with SF-268 CNS; 4.4 µM in the experiment on HOP-92 NSCLC; 19.9 µM in the experiment on OVCAR-5 ovarian; 12.5 µM with SK-OV-3 ovarian; 8.32 µM in the experiment on A498 renal. Moreover, the TGI with HL-60(TB) leukemia came out at 4.3 µM; in the experiment on SN12C renal, 12.9 µM; with HCT-15 colon, 12.9 µM; in the experiment with SF-539 CNS it was 3.25 µM.
As to `O=C(Nc1ncc(Cc2ccc(Cl)cc2)s1)c1ccc2c(c1)OCCO2`, the GI50 with HOP-62 NSCLC is 0.0948 µM; with SF-268 CNS, 0.786 µM; with HOP-92 NSCLC it was 2.12 µM; with OVCAR-5 ovarian, 0.266 µM; with SK-OV-3 ovarian it was 0.183 µM; in the experiment with A498 renal it was 0.0187 µM. For the same molecule, the GI50 is 0.0537 µM in the experiment on HL-60(TB) leukemia, 0.155 µM in the experiment on SN12C renal, 0.0477 µM with HCT-15 colon and 0.0469 µM in the experiment with SF-539 CNS. In addition, the TGI in the experiment on HOP-62 NSCLC was above 41.6 µM; in the experiment on SF-268 CNS, above 100 µM; in the experiment on HOP-92 NSCLC, above 100 µM; in the experiment on OVCAR-5 ovarian, above 100 µM; in the experiment on SK-OV-3 ovarian, 92.9 µM; in the experiment with A498 renal, 0.0809 µM. Moreover, the TGI with SN12C renal was above 100 µM; in the experiment on HCT-15 colon it was above 100 µM; in the experiment with SF-539 CNS, 0.571 µM.
Regarding `COc1cc2c3c(n(CCCN4CCOCC4)c(=O)c2cc1OC)-c1cc2c(cc1C3=O)OCO2`, the GI50 in the experiment with HOP-62 NSCLC was 1.86 µM; in the experiment on SF-268 CNS, 0.954 µM; in the experiment with HOP-92 NSCLC, 3.21 µM; with OVCAR-5 ovarian it was 67.5 µM; in the experiment with SK-OV-3 ovarian it was above 77.6 µM; in the experiment with A498 renal, 7.53 µM. In addition, the GI50 with HL-60(TB) leukemia was 3.57 µM; in the experiment on SN12C renal, 0.821 µM; in the experiment with HCT-15 colon, 17.4 µM; in the experiment on SF-539 CNS, 0.165 µM. Also, the TGI with HOP-62 NSCLC is 55.7 µM; with SF-268 CNS it was above 100 µM; with HOP-92 NSCLC, above 91.5 µM; with OVCAR-5 ovarian, above 100 µM; in the experiment on SK-OV-3 ovarian, above 100 µM; in the experiment on A498 renal it was 54 µM. For the same molecule, the TGI in the experiment with HL-60(TB) leukemia is above 47 µM; with SN12C renal it was above 100 µM; in the experiment with HCT-15 colon, above 100 µM; with SF-539 CNS it was 2.37 µM.
For the molecule `Cc1cc(Cl)ccc1Nc1nc(C(F)(F)F)ccc1C(=O)N/N=C/c1c(Cl)cccc1Cl`, the GI50 in the experiment on HOP-62 NSCLC is 0.876 µM; in the experiment with SF-268 CNS, 0.354 µM; in the experiment with HOP-92 NSCLC, 0.221 µM; with OVCAR-5 ovarian it was 0.888 µM; with SK-OV-3 ovarian it was 0.486 µM; in the experiment on A498 renal, 0.473 µM. Besides, the GI50 was 0.229 µM in the experiment on HL-60(TB) leukemia, 0.262 µM with SN12C renal, 0.145 µM with HCT-15 colon and 0.638 µM in the experiment on SF-539 CNS. The TGI was above 27.2 µM in the experiment with HOP-62 NSCLC; above 36.4 µM with SF-268 CNS; 0.664 µM with HOP-92 NSCLC; above 100 µM in the experiment on OVCAR-5 ovarian; 3.29 µM with SK-OV-3 ovarian; above 22.8 µM in the experiment on A498 renal. Further, the TGI in the experiment with HL-60(TB) leukemia is 0.53 µM; with SN12C renal it was above 100 µM; in the experiment on HCT-15 colon, above 100 µM; in the experiment on SF-539 CNS it was 4.07 µM.
With `Cn1cc(C2=C(c3cccc(NCC(O)CO)c3)C(=O)NC2=O)c2cc(Cl)ccc21` (centres undefined), the GI50 was 4.9 µM in the experiment with HOP-62 NSCLC; 4.46 µM in the experiment on SF-268 CNS; 8.16 µM in the experiment with HOP-92 NSCLC; 9.63 µM with OVCAR-5 ovarian; 4.78 µM with SK-OV-3 ovarian; 0.0817 µM in the experiment with A498 renal. The GI50 with HL-60(TB) leukemia is 6.9 µM; in the experiment on SN12C renal it was 4.62 µM; in the experiment on HCT-15 colon, 5.97 µM; with SF-539 CNS, 1.78 µM. Besides, the TGI in the experiment on HOP-62 NSCLC was 18 µM; with SF-268 CNS, 10.5 µM; in the experiment on HOP-92 NSCLC it was 14.1 µM; in the experiment with OVCAR-5 ovarian, above 20.9 µM; in the experiment on SK-OV-3 ovarian, above 23 µM; in the experiment with A498 renal, 4.43 µM. Besides, the TGI in the experiment with HL-60(TB) leukemia is 17.1 µM; in the experiment on SN12C renal it was 16.5 µM; in the experiment with HCT-15 colon, above 25 µM; in the experiment on SF-539 CNS, 6.9 µM.
